Experimental findings from ChEMBL document CHEMBL1150541, “Penem inhibitors of bacterial signal peptidase” (Bioorg Med Chem Lett, 1995) are described below.

Where a SMILES comes first, the peptide text is derived from it.

Assay [1] addresses Signal peptidase I (Escherichia coli K-12) (UniProt P00803). Kind of assay: Inhibitory activity against Escherichia coli leader peptidase at a concentration of 100 uM.
Assay [2] concerns the target Signal peptidase I (Escherichia coli K-12, UniProt P00803). Kind of assay: Inhibitory activity against Escherichia coli leader peptidase using substrate A. Conditions: read-out: I50.
The nature of assay [3]: Inhibitory activity against Escherichia coli leader peptidase using substrate A. The following applies: read-out: I50.
The subject of assay [4] is Escherichia coli. The assay is described as follows: Compound was evaluated for Michaelis-Menten constant (Km).
Assay [5] can be described thus: Inhibitory activity against Escherichia coli leader peptidase using substrate B. The following applies: read-out: I50.
Assay [6] has as its system Escherichia coli. The following applies: 100 uM.

Chain of Signal peptidase I (Escherichia coli K-12) (P00803 whole entry): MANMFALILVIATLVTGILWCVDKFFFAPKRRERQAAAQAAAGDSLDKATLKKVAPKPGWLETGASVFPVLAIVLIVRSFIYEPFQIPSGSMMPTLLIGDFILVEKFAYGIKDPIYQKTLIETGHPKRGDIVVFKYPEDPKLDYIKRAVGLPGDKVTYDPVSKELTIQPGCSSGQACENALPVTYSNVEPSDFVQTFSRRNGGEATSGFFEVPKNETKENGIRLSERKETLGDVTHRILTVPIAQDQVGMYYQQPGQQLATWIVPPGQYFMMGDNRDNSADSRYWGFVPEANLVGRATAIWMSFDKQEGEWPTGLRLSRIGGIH
Chain of Signal peptidase I (P00803 whole entry): as above

For `C=CCOC(=O)C1=CS[C@@H]2[C@@H]([C@H](C)OC(C)=O)C(=O)N12`, the inhibition in assay [1] was determined as 0%.

As to `CCCCCOC(=O)C1=CSC2CC(=O)N12` (stereo not drawn), in assay [2], the IC50 came to 21 µM. Also, the inhibition in assay [1] amounted to 100%.

As to `O=C(C1=CSC2CC(=O)N12)N1CCCC1` (stereo not drawn), the IC50 in assay [3] is 10 µM. For the same compound, the inhibition in assay [1] came out at 93%.

Consider `O=C(NCc1ccccc1)C1=CSC2CC(=O)N12` (stereo not drawn), for which the inhibition in assay [1] came to 34%.

Regarding `CCN(CC)C(=O)C1=CSC2CC(=O)N12` (stereo not drawn), the IC50 in assay [2] is 58 µM. Besides, the inhibition in assay [1] was 86%.

For `CC[C@H](C)[C@H](NC(=O)[C@H](CCCCN)NC(=O)[C@H](C)NC(=O)[C@H](CC(C)C)NC(=O)[C@H](C)NC(=O)[C@H](CO)NC(=O)[C@H](C)NC(=O)[C@H](CO)NC(=O)[C@@H](N)Cc1c[nH]c2ccccc12)C(N)=O` (H-WSASALAKI-NH2), the Km in assay [4] is 300 µM.

As for `O=C(OCCCCc1ccccc1)C1=CSC2CC(=O)N12` (stereo not drawn), the IC50 in assay [2] worked out at 13 µM. Besides, the inhibition in assay [1] was 83%.

In the case of `CN(Cc1ccccc1)C(=O)C1=CSC2CC(=O)N12` (stereo not drawn), the IC50 in assay [2] came out at 50 µM. The inhibition in assay [1] was found to be 88%.

On to `CC(C)(C)NC(=O)C1=CSC2CC(=O)N12` (stereo not drawn), for which the inhibition in assay [1] came out at 0%.

In assay [1], `CCCCCCCCCCCCCCCCOC(=O)C1=CSC2CC(=O)N12` (stereo not drawn) gave an inhibition of 0%.

On to `C=CCOC(=O)C1=CS[C@H]2[C@@H]([C@@H](C)OC(C)=O)C(=O)N12` [listing 1 of 3 here], for which the IC50 in assay [5] was 0.07 µM; in assay [2] it was 0.85 µM.

Compound `C=CCOC(=O)C1=CS[C@@H]2[C@@H]([C@@H](C)OC(C)=O)C(=O)N12` came in with an inhibition in assay [1] of 64%.

Turning to `O=C(OCc1ccccc1)C1=CS[C@@H]2CC(=O)N12`, in assay [1], the inhibition was 0%.

For `COc1ccc(NC(=O)C2=CSC3CC(=O)N23)cc1` (stereo not drawn), in assay [2], the IC50 came to 87 µM. The inhibition in assay [1] came out at 77%.

For `C=CCOC(=O)C1=CS[C@H]2[C@@H]([C@@H](C)O)C(=O)N12`, the IC50 was 0.18 µM in assay [5] and 0.92 µM in assay [2]. The inhibition in assay [1] was found to be 100%.

With `C=CCOC(=O)C1=CS[C@H]2[C@@H]([C@@H](C)OC(C)=O)C(=O)N12` [listing 2 of 3 here], the IC50 in assay [2] was 1.8 µM.

`O=C(OCc1ccccc1)C1=CS[C@H]2CC(=O)N12`: in assay [2], the IC50 amounted to 3 µM. In assay [1], the inhibition stood at 100%.

The compound `C=CCOC(=O)C1=CS[C@H]2[C@@H]([C@@H](C)OC(C)=O)C(=O)N12` [listing 3 of 3 here] returned an inhibition in assay [1] of 100%.

Regarding `C=CCOC(=O)C1=CS[C@H]2[C@@H](CC)C(=O)N12`, the IC50 in assay [2] amounted to 20 µM. The same compound yielded an inhibition in assay [1] of 84%.

As for `O=C(OCc1ccc([N+](=O)[O-])cc1)C1=CSC2CC(=O)N12` (stereo not drawn), the IC50 in assay [2] came to 50 µM. The compound also displayed an inhibition in assay [1] of 85%.

With `CC[C@H](C)[C@H](NC(=O)[C@H](CCCCN)NC(=O)[C@H](C)NC(=O)[C@H](CC(C)C)NC(=O)[C@H](C)NC(=O)[C@H](CO)NC(=O)[C@H](C)NC(=O)[C@H](CO)NC(=O)[C@@H](N)Cc1ccccc1)C(N)=O` (H-FSASALAKI-NH2), the Michaelis constant (Km) in assay [4] amounted to 1000 µM.

Take `COC(=O)C1=CSC2CC(=O)N12` (stereo not drawn): the IC50 in assay [2] came to 4 µM. Moreover, the inhibition in assay [1] turned out to be 100%.

For the compound `O=C(OCc1ccc(C(=O)O)cc1)C1=CSC2CC(=O)N12` (stereo not drawn), the inhibition in assay [1] worked out at 31%.

With `COCOC(=O)C1=CSC2CC(=O)N12` (stereo not drawn), the IC50 in assay [2] turned out to be 6 µM. In addition, the inhibition in assay [1] was found to be 100%.

For `C=CCOC(=O)C1=CS[C@@H]2[C@H]([C@H](C)OC(C)=O)C(=O)N12`, the inhibition in assay [1] came to 20%.

With `O=C(C1=CSC2CC(=O)N12)N1CCOCC1` (stereo not drawn), the IC50 in assay [2] worked out at 115 µM. The inhibition in assay [1] was found to be 79%.

On to `O=C(O)C1=CSC2CC(=O)N12` (stereo not drawn), for which, in assay [2], the IC50 came out at 600 µM. This compound showed an inhibition in assay [1] of 0%.

Turning to `C=CCOC(=O)C1=CS[C@@H]2[C@@H](CC)C(=O)N12`, the inhibition in assay [1] was determined as 19%.

On to `O=C(OCc1ccccc1)C1=CSC2CC(=O)N12` (stereo not drawn), for which, in assay [2], the IC50 was found to be 10 µM. In assay [6], this compound showed an inhibition of 100%.

On to `C=CCOC(=O)C1=CSC2CC(=O)N12` (stereo not drawn), for which the IC50 in assay [2] turned out to be 10 µM. The inhibition in assay [1] was found to be 93%.

Regarding `COc1ccc(COC(=O)C2=CSC3CC(=O)N23)cc1` (stereo not drawn), the IC50 in assay [2] is 7 µM. Moreover, the inhibition in assay [1] amounted to 100%.

For `O=C(Nc1ccccc1)C1=CSC2CC(=O)N12` (stereo not drawn), the IC50 in assay [2] came to 58 µM. The inhibition in assay [1] amounted to 86%.

In the case of `COc1ccc(COC(=O)C2=CS[C@@H]3CC(=O)N23)cc1`, in assay [1], the inhibition was 0%.

As for `C=CCOC(=O)C1=CS[C@H]2[C@@H]([C@H](C)OC(C)=O)C(=O)N12`, in assay [1], the inhibition was 0%.

As for `COC(=O)c1ccc(COC(=O)C2=CSC3CC(=O)N23)cc1` (stereo not drawn), the IC50 in assay [2] was determined as 3 µM. The compound further had an inhibition in assay [1] of 100%.

Regarding `COC(=O)c1cccc(COC(=O)C2=CSC3CC(=O)N23)c1` (stereo not drawn), the IC50 in assay [2] was 8 µM. In assay [1], the inhibition was determined as 72%.
